Data taken from patent publication US8710043B2, “TRPM8 antagonists and their use in treatments” (Amgen Inc., priority 2011, dated 2014).
pIC50: −log10 of the molar value.

These compounds were tested against T1, human TRPM8 (Homo sapiens, UniProt Q7Z2W7) (assay: Luminescence readout assay for measuring intracellular calcium, icilin activation). Conditions: CHO cells expressing human TRPM8, aequorin luminescence, 1 μM icilin activation; read-out: hTRPM8 IC50.
T1 construct: expressed in transfected cells; host or cells: Chinese hamster ovary (CHO) cells, T-REx tetracycline-inducible system, co-transfected with aequorin
Assay type: cell-based
In short: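 The read-out was luminescence reporting intracellular calcium, recorded by a CCD-based luminometer. Compounds were preincubated for 2.5 min before agonist challenge with 1 μM icilin. Human TRPM8 was expressed in a stable T-REx CHO line, induced with 0.5 μg/mL tetracycline the day before.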

T1 sequence (Q7Z2W7 whole entry): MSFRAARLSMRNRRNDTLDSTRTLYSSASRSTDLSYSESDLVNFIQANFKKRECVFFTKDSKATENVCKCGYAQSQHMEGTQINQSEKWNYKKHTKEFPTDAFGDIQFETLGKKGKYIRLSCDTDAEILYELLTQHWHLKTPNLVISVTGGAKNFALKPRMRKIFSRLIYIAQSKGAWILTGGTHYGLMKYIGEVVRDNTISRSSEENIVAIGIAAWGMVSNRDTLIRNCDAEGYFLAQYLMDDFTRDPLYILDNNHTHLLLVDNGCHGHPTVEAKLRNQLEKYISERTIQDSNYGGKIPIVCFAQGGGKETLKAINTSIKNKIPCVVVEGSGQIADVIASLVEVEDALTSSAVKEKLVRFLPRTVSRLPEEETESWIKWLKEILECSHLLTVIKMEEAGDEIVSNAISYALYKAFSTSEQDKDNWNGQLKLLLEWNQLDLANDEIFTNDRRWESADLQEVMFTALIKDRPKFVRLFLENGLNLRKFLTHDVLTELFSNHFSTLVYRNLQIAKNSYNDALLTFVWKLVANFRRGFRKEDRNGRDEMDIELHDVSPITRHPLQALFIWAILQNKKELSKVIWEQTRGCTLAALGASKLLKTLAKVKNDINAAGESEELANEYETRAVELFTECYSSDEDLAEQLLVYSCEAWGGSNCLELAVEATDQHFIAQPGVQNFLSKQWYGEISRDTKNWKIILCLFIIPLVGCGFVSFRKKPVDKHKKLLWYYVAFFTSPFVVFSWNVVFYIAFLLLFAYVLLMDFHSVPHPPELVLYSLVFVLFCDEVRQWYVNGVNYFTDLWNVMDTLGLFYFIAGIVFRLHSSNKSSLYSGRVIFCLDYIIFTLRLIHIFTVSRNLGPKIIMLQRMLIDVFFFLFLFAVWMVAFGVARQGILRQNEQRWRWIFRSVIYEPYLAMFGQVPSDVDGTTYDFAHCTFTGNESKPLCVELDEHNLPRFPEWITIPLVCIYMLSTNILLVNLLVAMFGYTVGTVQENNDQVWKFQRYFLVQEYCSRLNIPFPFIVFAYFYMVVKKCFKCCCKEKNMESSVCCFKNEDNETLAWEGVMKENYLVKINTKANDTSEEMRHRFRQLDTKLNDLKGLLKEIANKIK

pIC50	Compound
6.75	O=C(N[C@@H](c1ccc(C(F)(F)F)cc1)c1ccccn1)c1ccc2c(c1)NCCC2 [Example 276, (S)—N-(Pyridin-2-yl(4-(trifluoromethyl)phenyl)methyl)-1,2,3,4-tetrahydroquinoline-7-carboxamide]
7.64	Cn1cc(C(=O)N[C@@H](c2ccc(OC(F)(F)F)c(F)c2)c2ccccc2F)ccc1=O [Example 296, (S)-N-((3-fluoro-4-(trifluoromethoxy)phenyl)(2-fluorophenyl)methyl)-1-methyl-6-oxo-1,6-dihydropyridine-3-carboxamide]
6.52	O=C(N[C@@H](c1cc(F)cc(C(F)(F)F)c1)c1ncccc1F)c1ccc(=O)[nH]c1 [Example 327, (S)-N-((3-fluoro-5-(trifluoromethyl)phenyl)(3-fluoropyridin-2-yl)methyl)-6-oxo-1,6-dihydropyridine-3-carboxamide]
5.66	Nc1n[nH]c(C(=O)N[C@@H](c2ccc(C(F)(F)F)cc2)c2ncccc2C(F)(F)F)n1 [Example 159, (S)-3-amino-N-((4-(trifluoromethyl)phenyl)(3-(trifluoromethyl)pyridin-2-yl)methyl)-1H-1,2,4-triazole-5-carboxamide]
6.94	O=C(N[C@@H](c1ccc(C(F)(F)F)cc1)c1ncccc1C(F)(F)F)c1cccc(C(F)(F)F)c1 [Example 211, (S)-3-(trifluoromethyl)-N-((4-(trifluoromethyl)phenyl)(3-(trifluoromethyl)pyridin-2-yl)methyl)benzamide]
6.23	CC(C)c1ccc(C(=O)N[C@@H](c2ccc(C(F)(F)F)cc2)c2ncccc2C(F)(F)F)cc1 [Example 127, (S)-4-isopropyl-N-((4-(trifluoromethyl)phenyl)(3-(trifluoromethyl)pyridin-2-yl)methyl)benzamide]
6.87	O=C(N[C@@H](c1ccc(C(F)(F)F)cc1)c1ncccc1C(F)(F)F)c1cccc(=O)[nH]1 [Example 63, (S)-6-oxo-N-((4-(trifluoromethyl)phenyl)(3-(trifluoromethyl)pyridin-2-yl)methyl)-1,6-dihydropyridine-2-carboxamide]
7.46	O=C(NC(c1ccc(C(F)(F)F)cc1)c1ncccc1F)c1ccccc1 (centres unmarked) [Example 193, N-((3-fluoropyridin-2-yl)(4-(trifluoromethyl)phenyl)methyl)benzamide]
7.75	CC#Cc1cccnc1[C@@H](NC(=O)c1ccc2ncccc2c1)c1ccc(C(F)(F)F)cc1 [Example 93, (S)-N-((3-(prop-1-yn-1-yl)pyridin-2-yl)(4-(trifluoromethyl)phenyl)methyl)quinoline-6-carboxamide]
6.94	N#Cc1ccccc1C(=O)N[C@@H](c1ccc(C(F)(F)F)cc1)c1ncccc1C(F)(F)F [Example 197, (S)-2-cyano-N-((4-(trifluoromethyl)phenyl)(3-(trifluoromethyl)pyridin-2-yl)methyl)benzamide]
6.71	COc1cccnc1[C@@H](NC(=O)c1ccc2cccnc2c1)c1ccc(C(F)(F)F)cc1 [Example 28, (S)-N-((3-methoxypyridin-2-yl)(4-(trifluoromethyl)phenyl)methyl)quinoline-7-carboxamide]
7.38	O=C(N[C@@H](c1ccc(C(F)(F)F)cc1)c1ncccc1C(F)(F)F)c1ccc[nH]c1=O [Example 59, (S)-2-oxo-N-((4-(trifluoromethyl)phenyl)(3-(trifluoromethyl)pyridin-2-yl)methyl)-1,2-dihydropyridine-3-carboxamide]
6.92	O=C(N[C@@H](c1ccc(C(F)(F)F)cc1)c1ncccc1C(F)(F)F)c1cc2ccccc2s1 [Example 222, (S)-N-((4-(trifluoromethyl)phenyl)(3-(trifluoromethyl)pyridin-2-yl)methyl)benzo[b]thiophene-2-carboxamide]
6.84	CS(=O)(=O)c1cccc(C(=O)N[C@@H](c2ccc(C(F)(F)F)cc2)c2ncccc2F)c1 [Example 216, (S)-N-((3-fluoropyridin-2-yl)(4-(trifluoromethyl)phenyl)methyl)-3-(methylsulfonyl)benzamide]
5.64	O=C(O)c1cncc(C(=O)N[C@@H](c2ccc(C(F)(F)F)cc2)c2ncccc2C(F)(F)F)c1 [Example 226, (S)-5-(((4-(trifluoromethyl)phenyl)(3-(trifluoromethyl)pyridin-2-yl)methyl)carbamoyl)nicotinic acid]
7.33	Cc1cccnc1[C@@H](NC(=O)c1ccc2c(c1)OCC(=O)N2)c1ccc(OC(F)(F)F)c(F)c1 [Example 357, (S)-N-((3-fluoro-4-(trifluoromethoxy)phenyl)(3-methylpyridin-2-yl)methyl)-3-oxo-3,4-dihydro-2H-benzo[b][1,4]oxazine-7-carboxamide]
6.88	O=C(N[C@@H](c1ccc(C(F)(F)F)cc1)c1ncccc1F)c1c[nH]c(=O)cn1 [Example 319, (S)-N-((3-fluoropyridin-2-yl)(4-(trifluoromethyl)phenyl)methyl)-5-oxo-4,5-dihydropyrazine-2-carboxamide]
7.66	COc1ccccc1C(=O)N[C@@H](c1ccc(C(F)(F)F)cc1)c1ncccc1C(F)(F)F [Example 176, (S)-2-methoxy-N-((4-(trifluoromethyl)phenyl)(3-(trifluoromethyl)pyridin-2-yl)methyl)benzamide]

pIC50	Compound
6.87	O=C(N[C@@H](c1ccc(C(F)(F)F)cc1)c1ncccc1F)c1cccnc1 [Example 203, (S)-N-((3-fluoropyridin-2-yl)(4-(trifluoromethyl)phenyl)methyl)nicotinamide]
6.78	O=C(N[C@@H](c1ccc(C(F)(F)F)cc1)c1ncccc1F)c1ccc[nH]c1=O [Example 72, (S)-N-((3-fluoropyridin-2-yl)(4-(trifluoromethyl)phenyl)methyl)-2-oxo-1,2-dihydropyridine-3-carboxamide]
7.31	N#Cc1ccc(C(=O)N[C@@H](c2ccc(C(F)(F)F)cc2)c2ncccc2F)cc1 (stereo in doubt) [Example 200, 4-cyano-N-((3-fluoropyridin-2-yl)(4-(trifluoromethyl)phenyl)methyl)benzamide]
7.51	O=C(N[C@@H](c1ccc(OC(F)(F)F)cc1)c1ncccc1F)c1ccc2nnnn2c1 [Example 309, (S)-N-((3-fluoropyridin-2-yl)(4-(trifluoromethoxy)phenyl)methyl)tetrazolo[1,5-a]pyridine-6-carboxamide]
7.42	N#Cc1cccc(C(=O)N[C@@H](c2ccc(C(F)(F)F)cc2)c2ncccc2C(F)(F)F)c1 [Example 168, (S)-3-cyano-N-((4-(trifluoromethyl)phenyl)(3-(trifluoromethyl)pyridin-2-yl)methyl)be]
6.79	O=C(N[C@@H](c1ccc(C(F)(F)F)cc1)c1ncccc1C(F)(F)F)c1ccno1 [Example 220, (S)-N-((4-(trifluoromethyl)phenyl)(3-(trifluoromethyl)pyridin-2-yl)methyl)isoxazole-5-carboxamide]
6.50	COc1ccc([C@H](NC(=O)c2ccc(=O)n(C)c2)c2ncccc2F)cc1F [Example 337, (S)-N-((3-fluoro-4-methoxyphenyl)(3-fluoropyridin-2-yl)methyl)-1-methyl-6-oxo-1,6-dihydropyridine-3-carboxamide]
7.75	Cc1cc(C(=O)N[C@@H](c2ccc(OC(F)(F)F)c(F)c2)c2ncccc2F)c[nH]c1=O [Example 403, (S)-N-((3-fluoro-4-(trifluoromethoxy)phenyl)(3-fluoropyridin-2-yl)methyl)-5-methyl-6-oxo-1,6-dihydropyridine-3-carboxamide]
6.87	CC(=O)Nc1ccc(C(=O)N[C@@H](c2ccc(OC(F)(F)F)c(F)c2)c2ncccc2F)cc1O [Example 390, (S)-4-acetamido-N-((3-fluoro-4-(trifluoromethoxy)phenyl)(3-fluoropyridin-2-yl)methyl)-3-hydroxybenzamide]
5.36	CC(=O)NC(C)C(=O)N[C@@H](c1ccc(C(F)(F)F)cc1)c1ncccc1C(F)(F)F (stereo partly drawn) [Example 162, 2-acetamido-N-((S)-(4-(trifluoromethyl)phenyl)(3-(trifluoromethriyl)pyridin-2-yl)methyl)propanamide]
6.84	COc1ccnc(C(=O)N[C@@H](c2ccc(C(F)(F)F)cc2)c2ncccc2C(F)(F)F)c1 [Example 32, (S)-4-methoxy-N-((4-(trifluoromethyl)phenyl)(3-(trifluoromethyl)pyridin-2-yl)methyl)picolinamide]
5.99	O=C(N[C@@H](c1ccc(C(F)(F)F)cc1)c1ncccc1C(F)(F)F)C1CCC(O)CC1 (stereo partly drawn) [Example 242, (S)-4-hydroxy-N-((4-(trifluoromethyl)phenyl)(3-(trifluoromethyl)pyridin-2-yl)methyl)cyclohexanecarboxamide]
5.85	COCCC(=O)N[C@@H](c1ccc(C(F)(F)F)cc1)c1ncccc1C(F)(F)F [Example 224, (S)-3-methoxy-N-((4-(trifluoromethyl)phenyl)(3-(trifluoromethyl)pyridin-2-yl)methyl)propanamide]
7.14	COc1ncccc1C(=O)NC(c1ccc(C(F)(F)F)cc1)c1ncccc1F (centres unmarked) [Example 36, N-((3-fluoropyridin-2-yl)(4-(trifluoromethyl)phenyl)methyl)-2-methoxynicotinamide]
7.41	O=C1CNc2cc(C(=O)N[C@@H](c3ccc(C(F)(F)F)cc3)c3ncccc3F)ccc2O1 [Example 75, (S)-N-((3-fluoropyridin-2-yl)(4-(trifluoromethyl)phenyl)methyl)-2-oxo-3,4-dihydro-2H-benzo[b][1,4]oxazine-6-carboxamide]
6.98	O=C(NC(c1ccc(C(F)(F)F)cc1)c1ncccc1F)c1cccc(F)c1 (centres unmarked) [Example 209, 3-fluoro-N-((3-fluoropyridin-2-yl)(4-(trifluoromethyl)phenyl)methyl)benzamide]
6.92	O=C(O)c1cccc(C(=O)N[C@@H](c2ccc(C(F)(F)F)cc2)c2ncccc2F)c1 [Example 207, (S)-3-(((3-fluoropyridin-2-yl)(4-(trifluoromethyl)phenyl)methyl)carbamoyl)benzoic acid]
